In patent US12655116B2, “Substituted isophthalic acid diamides” (Bayer Aktiengesellschaft, priority 2020, dated 2026):

Tests used:
[1] = test system: MATIN; assay: Post-emergence herbicidal action against MATIN; format: in vivo, Matricaria inodora
In short: (§1)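 A WP or EC formulation diluted in water with 0.2% wetting agent was sprayed at 600 to 800 l/ha onto one-leaf-stage plants grown in sandy loam. About 3 weeks later, action was rated visually in percent, 100% being dead plants.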

[2] = test system: ALOMY; assay: Post-emergence herbicidal action against ALOMY; format: in vivo, Alopecurus myosuroides; settings: dosage 20 g/ha, visual assessment about 3 weeks after treatment vs untreated controls
In short: as §1

[3] = test system: ECHCG; assay: Post-emergence herbicidal action against ECHCG; format: in vivo, Echinochloa crus-galli
In short: as §1

[4] = test system: VERPE; assay: Post-emergence herbicidal action against VERPE; format: in vivo, Veronica persica
In short: as §1

[5] = test system: DIGSA; assay: Pre-emergence herbicidal action against DIGSA; format: in vivo, Digitaria sanguinalis
In short: (§2)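 Greenhouse pots of sandy loam held seeds covered with soil, onto which the compound was applied before emergence. An aqueous suspension or emulsion of WP or EC was used at 600 to 800 l/ha with 0.2% wetting agent. Percent damage was judged visually at 3 weeks.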

[6] = test system: MATIN; assay: Pre-emergence herbicidal action against MATIN; format: in vivo, Matricaria inodora
In short: as §2

[7] = test system: SETVI; assay: Pre-emergence herbicidal action against SETVI; format: in vivo, Setaria viridis
In short: as §2

[8] = test system: AVEFA; assay: Post-emergence herbicidal action against AVEFA; format: in vivo, Avena fatua; settings: 20 g/ha, visual assessment about 3 weeks after treatment, 100% = plants have died, 0% = like control plants
In short: as §1

[9] = test system: ABUTH; assay: Post-emergence herbicidal action against ABUTH; format: in vivo, Abutilon theophrasti; settings: visual assessment about 3 weeks after treatment vs untreated controls
In short: as §1

[10] = test system: DIGSA; assay: Post-emergence herbicidal action against DIGSA; format: in vivo, Digitaria sanguinalis; settings: for Post-emergence action against DIGSA: 20 g/ha
In short: as §1

[11] = test system: PHBPU; assay: Post-emergence herbicidal action against PHBPU; format: in vivo, Pharbitis purpurea
In short: as §1

[12] = test system: AMARE; assay: Pre-emergence herbicidal action against AMARE; format: in vivo, Amaranthus retroflexus
In short: as §2

[13] = test system: POLCO; assay: Pre-emergence herbicidal action against POLCO; format: in vivo, Polygonum convolvulus
In short: as §2

[14] = test system: ECHCG; assay: Pre-emergence herbicidal action against ECHCG; format: in vivo, Echinochloa crus-galli
In short: as §2

[15] = test system: ABUTH; assay: Pre-emergence herbicidal action against ABUTH; format: in vivo, Abutilon theophrasti; settings: for Pre-emergence action against ABUTH (herbicidal activity): 80 g/ha, scored visually after 3 weeks vs untreated controls (100% = plants have died, 0% = like control plants); for Pre-emergence action against ABUTH (herbicidal activity in percent): dosage 20 g/ha, scored visually after 3 weeks vs untreated controls, 100% = plants have died, 0% = like control plants
In short: as §2

[16] = test system: PHBPU; assay: Pre-emergence herbicidal action against PHBPU; format: in vivo, Pharbitis purpurea; settings: dosage 80 g/ha
In short: as §2

[17] = test system: AMARE; assay: Post-emergence herbicidal action against AMARE; format: in vivo, Amaranthus retroflexus; settings: 20 g/ha, visual assessment about 3 weeks after treatment, 100% = plants have died, 0% = like control plants
In short: as §1

[18] = test system: VIOTR; assay: Pre-emergence herbicidal action against VIOTR; format: in vivo, Viola tricolor
In short: as §2

[19] = test system: ALOMY; assay: Pre-emergence herbicidal action against ALOMY; format: in vivo, Alopecurus myosuroides; settings: 80 g/ha, pre-emergence, scored visually after 3 weeks vs untreated controls (100% = plants have died, 0% = like control plants)
In short: as §2

[20] = test system: AVEFA; assay: Pre-emergence herbicidal action against AVEFA; format: in vivo, Avena fatua; settings: 80 g/ha, pre-emergence
In short: as §2

[21] = test system: VIOTR; assay: Post-emergence herbicidal action against VIOTR; format: in vivo, Viola tricolor
In short: as §1

[22] = test system: VERPE; assay: Pre-emergence herbicidal action against VERPE; format: in vivo, Veronica persica; settings: dosage 80 g/ha
In short: as §2

[23] = test system: SETVI; assay: Post-emergence herbicidal action against SETVI; format: in vivo, Setaria viridis
In short: as §1

[24] = 20 g/ha, scored visually after 3 weeks vs untreated controls, 100% = plants have died, 0% = like control plants
[25] = 80 g/ha, scored visually after 3 weeks vs untreated controls (100% = plants have died, 0% = like control plants)

SMILES | Post-emergence action against MATIN in % ([1]; dosage 5 g/ha) | Post-emergence action against MATIN in % ([1]; dosage 20 g/ha) | Post-emergence action against ALOMY in % [2] | Post-emergence action against VERPE in % ([4]; 20 g/ha) | Pre-emergence action against MATIN in % ([6]; dosage 20 g/ha) | Pre-emergence action against MATIN in % ([6]; dosage 80 g/ha) | Pre-emergence action against SETVI in % ([7]; dosage 80 g/ha) | Post-emergence action at 20 g/ha against AVEFA in % [8] | Post-emergence action against ABUTH in % ([9]; dosage 20 g/ha) | Pre-emergence action against AMARE in % [12, 24] | Pre-emergence action against AMARE in % [12, 25] | Pre-emergence action against POLCO in % ([13]; dosage 80 g/ha) | Pre-emergence action against ECHCG in % ([14]; 80 g/ha) | Pre-emergence action against ABUTH (herbicidal activity) [15] | Pre-emergence action against ABUTH (herbicidal activity in percent) [15] | Pre-emergence action against PHBPU in % [16] | Post-emergence action at 20 g/ha against AMARE in % [17] | Pre-emergence action against VIOTR in % ([18]; dosage 20 g/ha) | Pre-emergence action against VIOTR in % ([18]; dosage 80 g/ha) | Pre-emergence action against ALOMY (herbicidal activity) [19] | also measured
CCn1nnnc1NC(=O)c1ccc(C(F)(F)F)c(C(=O)NC(C)C2CC2)c1C (centres unmarked) [Example 2-31] | 80% | 80% | 80% | 80% | 100% | 100% | 100% | 80% | 80% | 100% | 100% | 80% | 100% | 100% | 100% | 80% | 80% | 100% | 100% | 80% | Post-emergence action against ECHCG in % ([3]; dosage 5 g/ha): 80%; Post-emergence action against ECHCG in % ([3]; dosage 20 g/ha): 90%; Pre-emergence action against DIGSA in % ([5]; dosage 20 g/ha): 100%; Pre-emergence action against DIGSA in % ([5]; dosage 80 g/ha): 100%; Post-emergence action against DIGSA [10]: 80%; Post-emergence action against PHBPU in % ([11]; dosage 5 g/ha): 80%; Post-emergence action against PHBPU in % ([11]; dosage 20 g/ha): 90%; Pre-emergence action against POLCO in % ([13]; dosage 20 g/ha): 80%; Pre-emergence action against AVEFA in % [20]: 100%
CSc1c(C(=O)Nc2nnnn2C)ccc(C(F)(F)F)c1C(=O)NCC(F)F [Example 1-86] |  | 80% | 100% | 90% | 100% | 100% | 100% | 100% | 100% | 100% | 100% | 80% | 100% | 100% | 100% | 80% | 100% | 100% | 100% | 100% | Post-emergence action against ECHCG in % ([3]; dosage 5 g/ha): 80%; Post-emergence action against ECHCG in % ([3]; dosage 20 g/ha): 100%; Pre-emergence action against SETVI in % ([7]; dosage 20 g/ha): 80%; Post-emergence action against ABUTH in % ([9]; dosage 5 g/ha): 100%; Post-emergence action against PHBPU in % ([11]; dosage 5 g/ha): 80%; Post-emergence action against PHBPU in % ([11]; dosage 20 g/ha): 90%; Pre-emergence action against ECHCG in % ([14]; 20 g/ha): 90%; Post-emergence action against VIOTR in % ([21]; 5 g/ha): 90%; Post-emergence action against VIOTR in % ([21]; 20 g/ha): 100%; Pre-emergence action against VERPE in % [22]: 100%; Post-emergence action against SETVI in % ([23]; dosage 20 g/ha): 80%; Pre-emergence action against AVEFA in % [20]: 100%
Cn1nnnc1NC(=O)c1ccc(C(F)(F)F)c(C(=O)NCC(F)F)c1C1CC1 [Example 1-291] | 80% | 90% | 90% | 80% | 90% | 100% | 100% | 80% | 90% | 100% | 100% | 80% | 90% | 100% | 100% | 80% | 90% | 100% | 100% | 80% | Post-emergence action against ECHCG in % ([3]; dosage 5 g/ha): 80%; Post-emergence action against ECHCG in % ([3]; dosage 20 g/ha): 80%; Pre-emergence action against DIGSA in % ([5]; dosage 20 g/ha): 100%; Pre-emergence action against DIGSA in % ([5]; dosage 80 g/ha): 100%; Post-emergence action against ABUTH in % ([9]; dosage 5 g/ha): 80%; Post-emergence action against DIGSA in % ([10]; 5 g/ha): 90%; Post-emergence action against DIGSA [10]: 100%; Post-emergence action against PHBPU in % ([11]; dosage 5 g/ha): 80%; Post-emergence action against PHBPU in % ([11]; dosage 20 g/ha): 90%; Post-emergence action against VIOTR in % ([21]; 5 g/ha): 90%; Post-emergence action against VIOTR in % ([21]; 20 g/ha): 100%; Post-emergence action against SETVI in % ([23]; dosage 20 g/ha): 80%
CCc1c(C(=O)Nc2nnnn2CC)ccc(C(F)(F)F)c1C(=O)NC [Example 2-271] | 100% | 100% | 100% | 90% | 100% | 100% | 100% | 80% | 100% | 100% | 100% | 80% | 100% | 100% | 100% | 100% | 100% | 100% | 100% | 80% | Post-emergence action against VERPE in % ([4]; 5 g/ha): 80%; Pre-emergence action against DIGSA in % ([5]; dosage 20 g/ha): 100%; Pre-emergence action against DIGSA in % ([5]; dosage 80 g/ha): 100%; Pre-emergence action against SETVI in % ([7]; dosage 20 g/ha): 100%; Post-emergence action against ABUTH in % ([9]; dosage 5 g/ha): 100%; Post-emergence action against VIOTR in % ([21]; 5 g/ha): 80%; Post-emergence action against VIOTR in % ([21]; 20 g/ha): 80%; Pre-emergence action against VERPE in % [22]: 100%; Post-emergence action against SETVI in % ([23]; dosage 5 g/ha): 100%; Post-emergence action against SETVI in % ([23]; dosage 20 g/ha): 100%
